Test results as given in patent US6955648B2, “Precision brain blood flow assessment remotely in real time using nanotechnology ultrasound” (New Health Sciences, Inc., priority 2000, dated 2005).

Tested on: cerebral vessels
Details: person after first stroke
Method: A person with a history of hypertension experiences a first stroke in the left middle cerebral artery resulting in deficits in the right hand, leg, and some deficits in motor speech. These are the symptoms upon presentation in the neurological clinic. Transcranial Doppler analysis of all cerebral vessels is performed in addition to analyzing the common carotid artery and the internal carotid artery.
The physician considers prescription of Plavix together with a calcium channel blocker. Transcranial Doppler analysis was performed at monthly intervals. […] The physician subsequently administers a higher dose. Again, transcranial Doppler analysis is performed on all cerebral vessels.

[1] = higher dose, transcranial Doppler on all cerebral vessels

COC(=O)[C@H](c1ccccc1Cl)N1CCc2sccc2C1 [Plavix] was tested, and the “effect on the cerebral vessels (changes in the individual cerebral vessels)” value (Plavix +/− calcium channel blocker, initial dose, transcranial Doppler at monthly intervals) was “no effect”, the auto-regulation curve [1] was “left-shifts toward normal” and the pulsatility index [1] was “decreases”.
